Laboratory results as given in paper PMC11242993, “Evaluation of the Therapeutic Potential of Sulfonyl Urea Derivatives as Soluble Epoxide Hydrolase (sEH) Inhibitors” (Molecules, 2024).

Target: T1, human recombinant sEH (Homo sapiens, UniProt P34913)
T1 construct: purchased Cayman Chemical 10011671
T1 sequence (P34913 1-555): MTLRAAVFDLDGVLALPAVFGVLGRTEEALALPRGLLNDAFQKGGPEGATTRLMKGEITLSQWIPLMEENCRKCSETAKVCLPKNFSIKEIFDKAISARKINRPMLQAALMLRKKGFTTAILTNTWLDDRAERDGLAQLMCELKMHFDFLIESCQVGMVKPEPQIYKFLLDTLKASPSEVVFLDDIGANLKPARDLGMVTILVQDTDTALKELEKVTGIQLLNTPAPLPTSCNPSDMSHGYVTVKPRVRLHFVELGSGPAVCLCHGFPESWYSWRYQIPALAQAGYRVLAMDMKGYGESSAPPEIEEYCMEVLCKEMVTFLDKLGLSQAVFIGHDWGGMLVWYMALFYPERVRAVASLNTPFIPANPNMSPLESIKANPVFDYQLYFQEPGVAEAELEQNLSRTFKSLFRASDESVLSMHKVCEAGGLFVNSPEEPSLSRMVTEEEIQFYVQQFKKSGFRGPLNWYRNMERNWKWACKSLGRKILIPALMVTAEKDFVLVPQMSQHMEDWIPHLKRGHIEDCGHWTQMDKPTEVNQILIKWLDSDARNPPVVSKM
Experiment: Fluorescence-based sEH activity assay (PHOME substrate), human enzyme
Assay type: biochemical
Experimental: A fluorescence-based sEH activity assay provided a convenient method for screening human epoxide hydrolase inhibitors. The assay utilized (3-Phenyl-oxiranyl)-acetic acid cyano-(6-methoxy-naphthalen-2-yl)-methyl ester (PHOME) as a substrate. […] The inhibitory function of the compounds on sEH activity was tested as detailed in the product manual from Cayman Chemical. Briefly, 3 mL sEH assay buffer (10×) was diluted with 27 mL HPLC-grade water. This final assay buffer, 25 mM bis-tris (pH 7.0), was used in the assay and for the dilution of the soluble epoxide hydrolase (sEH) enzyme. Amounts of 12 μL each of human and mouse recombinant sEH were thawed on ice. Prior to assaying, 588 μL cold assay buffer was added directly to the enzyme vial. An amount of 190 μL assay buffer and 5 μL solvent (40% DMSO in assay buffer) were added to the background wells. In the 100% initial activity wells, 185 μL assay buffer, 5 μL sEH, and 5 μL solvent were added. In inhibitor wells, 185 μL assay buffer, 5 μL solution of the synthesized compounds, and 5 μL of recombinant enzyme solution were added.
Average fluorescence (AF) of the background wells and 100% initial activity in the wells and of each of the inhibitors were determined. The background AF was subtracted from the 100% initial activity and inhibitor AFs. The % sEH activity is calculated as (inhbitited AF/% 100 initial activity) × 100.
Multiple concentrations of the inhibitors were tested followed by plotting of the percent activity as a function of inhibitor concentration to determine the IC50 values.

Row | Structure (SMILES) | Human sEH % Inhibition | human sEH inhibitory activity (in words)
1 | O=C(NC1C2CC3CC(C2)CC1C3)NS(=O)(=O)c1ccc(OC(F)(F)F)cc1 (stereo not shown) [Compound 12, N-((adamantan-2-yl)carbamoyl)-4-(trifluoromethoxy)benzenesulfonamide] | 34.53% | none of them showed any activity
2 | O=C(NS(=O)(=O)c1ccc(OC(F)(F)F)cc1)N1CCC(C(F)(F)F)CC1 [Compound 13, N-((4-(trifluoromethoxy)phenyl)sulfonyl)-4-(trifluoromethyl)piperidine-1-carboxamide] | 2.75% | none of them showed any activity
3 | CC(C)(C)c1ccc(S(=O)(=O)NC(=O)NC23CC4CC(CC(O)(C4)C2)C3)cc1 [Compound 10c, 4-(tert-butyl)-N-((-3-hydroxyadamantan-1-yl)carbamoyl)benzenesulfonamide] | 3.08% | 
4 | O=C(NC12CC3CC(CC(O)(C3)C1)C2)NS(=O)(=O)c1ccc(C(F)(F)F)cc1 [Compound 10b, N-((-3-hydroxyadamantan-1-yl)carbamoyl)-4-(trifluoromethyl)benzenesulfonamide] | 21.26% | 
5 | O=S(=O)(/N=C(\NNc1ccccc1)NC12CC3CC(CC(C3)C1)C2)c1ccc(OC(F)(F)F)cc1 [Compound 9c] | 4.71% | 
6 | O=C(NC12CC(F)(C1)C2)NS(=O)(=O)c1ccc(OC(F)(F)F)cc1 [Compound 11c, N-((3-fluorobicyclo [1.1.1]pentan-1-yl)carbamoyl)-4-(trifluoromethoxy)benzenesulfonamide] | 1.67% | 
7 | O=C(NC12CC(C1)C2)NS(=O)(=O)c1ccc(OC(F)(F)F)cc1 [Compound 11a, N-(bicyclo [1.1.1]pentan-1-ylcarbamoyl)-4-(trifluoromethoxy)benzenesulfonamide] | 4.28% | 
8 | CS/C(=N\S(=O)(=O)c1ccc(OC(F)(F)F)cc1)NC12CC3CC(CC(C3)C1)C2 [Compound 7] | 32.83% | 
9 | O=C(NC12CC3CC(CC(C3)C1)C2)NS(=O)(=O)c1cccc(OC(F)(F)F)c1 [Compound 4g, N-((adamantan-1-yl)carbamoyl)-3-(trifluoromethoxy)benzenesulfonamide] | 1.65% | sEH inhibition decreased to a significant extent
10 | CN/C(=N\S(=O)(=O)c1ccc(OC(F)(F)F)cc1)NC12CC3CC(CC(C3)C1)C2 [Compound 8b] | 13.06% | 
11 | O=C(NC12CC3CC(CC(C3)C1)C2)NS(=O)(=O)c1ccc(C(F)(F)F)cc1 [Compound 4c, N-((adamantan-1-yl)carbamoyl)-4-(trifluoromethyl)benzenesulfonamide] | 34.06% | 
12 | N#Cc1ccc(S(=O)(=O)NC(=O)NC23CC4CC(CC(C4)C2)C3)cc1 [Compound 4i, N-((adamantan-1-yl)carbamoyl)-4-cyanobenzenesulfonamide] | 19.36% | 
13 | O=C(NC1CCCCC1)NS(=O)(=O)c1ccc(OC(F)(F)F)cc1 [Compound 14, N-(cyclohexylcarbamoyl)-4-(trifluoromethoxy)benzenesulfonamide] | 32.26% | none of them showed any activity
14 | Cc1ccc(S(=O)(=O)NC(=O)NC23CC4CC(CC(O)(C4)C2)C3)cc1 [Compound 10a, N-((3-hydroxyadamantan-1-yl)carbamoyl)-4-methylbenzenesulfonamide] | 22.47% | 
15 | CC(C)(C)c1ccc(S(=O)(=O)NC(=S)NC23CC4CC(CC(C4)C2)C3)cc1 [Compound 6b, N-((adamantan-1-yl)carbamothioyl)-4-(tert-butyl)benzenesulfonamide] | 1.80% | 
16 | O=C(NC1CCNCC1)NS(=O)(=O)c1ccc(OC(F)(F)F)cc1 [Compound 17, N-(piperidin-4-ylcarbamoyl)-4-(trifluoromethoxy)benzenesulfonamide] | 32.02% | none of them showed any activity
17 | N#CC12CC(NC(=O)NS(=O)(=O)c3ccc(OC(F)(F)F)cc3)(C1)C2 [Compound 11b, N-((3-cyanobicyclo [1.1.1]pentan-1-yl)carbamoyl)-4-(trifluoromethoxy)benzenesulfonamide] | 7.47% | 
18 | CC(C)(C)OC(=O)N1CCC(NC(=O)NS(=O)(=O)c2ccc(OC(F)(F)F)cc2)CC1 [Compound 16, tert-butyl 4-(3-((4-(trifluoromethoxy)phenyl)sulfonyl)ureido)piperidine-1-carboxylate] | 23.03% | none of them showed any activity
19 | CNN/C(=N\S(=O)(=O)c1ccc(OC(F)(F)F)cc1)NC12CC3CC(CC(C3)C1)C2 [Compound 9b] | 9.83% | 
20 | CC(C)(C)c1ccc(S(=O)(=O)NC(=O)NC23CC4CC(CC(C4)C2)C3)cc1 [Compound 4d] | 32.7% | 
21 | CN(C)N/C(=N\S(=O)(=O)c1ccc(OC(F)(F)F)cc1)NC12CC3CC(CC(C3)C1)C2 [Compound 9d] | 7.65% | 
22 | COc1ccc(S(=O)(=O)NC(=S)NC23CC4CC(CC(C4)C2)C3)cc1 [Compound 6c, N-((adamantan-1-yl)carbamothioyl)-4-methoxybenzenesulfonamide] | 2.50% | 
23 | O=C(NC12CC3CC(CC(C3)C1)C2)NS(=O)(=O)c1ccccc1OC(F)(F)F [Compound 4h, N-((adamantan-1-yl)carbamoyl)-2-(trifluoromethoxy)benzenesulfonamide] | 6.28% | sEH inhibition decreased to a significant extent
24 | N/C(=N\S(=O)(=O)c1ccc(OC(F)(F)F)cc1)NC12CC3CC(CC(C3)C1)C2 [Compound 8a] | 40.19% | 
